Reference: ChEMBL document CHEMBL5370574, “Discovery and Characterization of Moracin C as an Anti-Gouty Arthritis/Hyperuricemia Candidate by Docking-Based Virtual Screening and Pharmacological Evaluation” (J Nat Prod, 2023)
Active and inactive are the calls of the source. The calls are words filed in the database; no cut-off is given here.

Legend:
[1] = biological target: T1, Xanthine dehydrogenase/oxidase (Homo sapiens, UniProt P47989); assay: Inhibition of XOD (unknown origin) using xanthine as substrate at 1 uM preincubated for 30 mins followed by xanthine addition measured after 30 mins by microplate reader relative to control; conditions: 0.5 h, time 60 min
Rattus norvegicus [2] = assay: Antiarthritic activity against MSU-induced Sprague-Dawley rat OA model assessed as inflammation index at 10 mg/kg, ig administered for 3 days; type: functional; conditions: time 3 day
Rattus norvegicus [3] = assay: Antiarthritic activity against MSU-induced Sprague-Dawley rat OA model assessed as reduction of serum TNF-alpha protein expression level at 10 mg/kg, ig administered for 3 days by ELISA; type: functional, organism-based; conditions: time 3.0 day
Rattus norvegicus [4] = assay: Antiarthritic activity against MSU-induced Sprague-Dawley rat OA model assessed as dysfunction index at 10 mg/kg, ig administered for 3 days; type: functional; conditions: time 3 day
Rattus norvegicus [5] = assay: Antiarthritic activity against MSU-induced Sprague-Dawley rat OA model assessed as toe swelling volume variation at 10 mg/kg, ig administered for 3 days; type: functional; conditions: time 3 day
Rattus norvegicus [6] = assay: Antiarthritic activity against MSU-induced Sprague-Dawley rat OA model assessed as dysfunction index at 1 mg/kg, ig administered for 3 days; type: functional, organism-based; conditions: time 3.0 day
Rattus norvegicus [7] = assay: Antiarthritic activity against MSU-induced Sprague-Dawley rat OA model assessed as toe swelling volume variation at 1 mg/kg, ig administered for 3 days; type: functional, organism-based; conditions: time 3.0 day
Rattus norvegicus [8] = assay: Antiarthritic activity against MSU-induced Sprague-Dawley rat OA model assessed as reduction in NLRP3 mRNA expression level in tissue joint at 10 mg/kg, ig administered for 3 days by qRT-PCR analysis; type: functional, organism-based; conditions: time 3.0 day
Rattus norvegicus [9] = assay: Antiarthritic activity against MSU-induced Sprague-Dawley rat OA model assessed as reduction in ASC mRNA expression level in tissue joint at 10 mg/kg, ig administered for 3 days by qRT-PCR analysis; type: functional, organism-based; conditions: time 3.0 day
Rattus norvegicus [10] = assay: Antiarthritic activity against MSU-induced Sprague-Dawley rat OA model assessed as reduction in Caspase-1 mRNA expression level in tissue joint at 10 mg/kg, ig administered for 3 days by qRT-PCR analysis; type: functional, organism-based; conditions: time 3.0 day
Rattus norvegicus [11] = assay: Antiarthritic activity against MSU-induced Sprague-Dawley rat OA model assessed as inflammation index at 1 mg/kg, ig administered for 3 days; type: functional, organism-based; conditions: time 3.0 day
[12] = biological target: T1, Xanthine dehydrogenase/oxidase; assay: Inhibition of XOD (unknown origin) using xanthine as substrate preincubated for 30 mins followed by xanthine addition measured after 30 mins by microplate reader
Mus musculus [13] = assay: Hypouricemic activity in hypoxanthine/potassium oxonate-induced hyperuricemic Kunming mouse model assessed as decrease in serum XOD level at 10 mg/kg, po administered for 7 days measured 4 hrs post last dose by automatic biochemical analyzer; type: functional, organism-based; conditions: time 7.0 day
Mus musculus [14] = assay: Hypouricemic activity in hypoxanthine/potassium oxonate-induced hyperuricemic Kunming mouse model assessed as decrease in liver XOD level at 10 mg/kg, po administered for 7 days measured 4 hrs post last dose by automatic biochemical analyzer; type: functional, organism-based; conditions: time 7.0 day

T1 sequence (P47989 whole entry): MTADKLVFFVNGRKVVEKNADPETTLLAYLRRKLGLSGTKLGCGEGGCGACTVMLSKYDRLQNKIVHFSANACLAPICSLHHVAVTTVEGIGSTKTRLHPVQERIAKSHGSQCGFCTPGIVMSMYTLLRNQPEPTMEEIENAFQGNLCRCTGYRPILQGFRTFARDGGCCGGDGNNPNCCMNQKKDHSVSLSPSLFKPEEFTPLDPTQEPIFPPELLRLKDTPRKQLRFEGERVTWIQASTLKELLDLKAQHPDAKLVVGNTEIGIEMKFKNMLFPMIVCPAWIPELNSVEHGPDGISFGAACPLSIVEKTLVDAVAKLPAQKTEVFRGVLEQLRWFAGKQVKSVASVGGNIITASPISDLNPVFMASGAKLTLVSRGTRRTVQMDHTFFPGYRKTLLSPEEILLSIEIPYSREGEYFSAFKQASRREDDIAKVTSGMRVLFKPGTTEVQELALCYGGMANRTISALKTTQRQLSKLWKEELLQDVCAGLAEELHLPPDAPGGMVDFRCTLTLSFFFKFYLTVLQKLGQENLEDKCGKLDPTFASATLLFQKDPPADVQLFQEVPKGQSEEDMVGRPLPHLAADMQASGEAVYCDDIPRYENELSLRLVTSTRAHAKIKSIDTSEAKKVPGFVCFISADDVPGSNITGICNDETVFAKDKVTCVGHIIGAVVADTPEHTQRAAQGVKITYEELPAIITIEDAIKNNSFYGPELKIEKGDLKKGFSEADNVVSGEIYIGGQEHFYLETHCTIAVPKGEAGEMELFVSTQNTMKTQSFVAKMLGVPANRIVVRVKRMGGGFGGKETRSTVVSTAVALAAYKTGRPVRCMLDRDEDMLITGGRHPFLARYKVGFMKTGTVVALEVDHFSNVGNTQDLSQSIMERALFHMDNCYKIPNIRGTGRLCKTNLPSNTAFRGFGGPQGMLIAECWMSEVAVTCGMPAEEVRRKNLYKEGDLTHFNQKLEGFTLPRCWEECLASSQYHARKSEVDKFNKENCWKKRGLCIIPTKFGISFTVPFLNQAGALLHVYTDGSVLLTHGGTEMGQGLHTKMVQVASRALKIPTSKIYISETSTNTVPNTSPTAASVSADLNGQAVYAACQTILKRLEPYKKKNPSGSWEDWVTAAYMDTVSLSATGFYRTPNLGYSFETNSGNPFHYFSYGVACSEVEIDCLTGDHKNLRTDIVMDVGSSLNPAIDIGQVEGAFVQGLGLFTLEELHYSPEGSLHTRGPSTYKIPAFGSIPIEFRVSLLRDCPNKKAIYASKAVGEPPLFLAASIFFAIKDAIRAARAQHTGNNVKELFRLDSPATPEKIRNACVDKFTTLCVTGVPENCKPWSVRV

COc1cc2c(cc1OC)C(Cc1ccc(O)cc1)N(C)CC2 (configuration not stated)
inhibition at 1 µM [1]: < 20%

CC1(C)C=Cc2cc(-c3cc(=O)c4c(O)cc(O)cc4o3)ccc2O1
inhibition at 1 µM [1]: < 20%

COc1cc2c(c(OC)c1OC)-c1ccc(OC)c(=O)cc1[C@@H](NC(C)=O)CC2 [COLCHICINE]
Activity_index (Rattus norvegicus [2]): 0.6
Activity (Rattus norvegicus [3]): Active
Activity_index (Rattus norvegicus [4]): 0
Activity (Rattus norvegicus [5]): 0.03 mL
Activity (Rattus norvegicus [6]): Active
Activity (Rattus norvegicus [7]): Active
Activity (Rattus norvegicus [8]): Active
Activity (Rattus norvegicus [9]): Active
Activity (Rattus norvegicus [10]): Active
Activity (Rattus norvegicus [11]): Active

COc1cc(O)c2c(=O)cc(-c3cc(OC)c(OC)c(OC)c3)oc2c1 [CORYMBOSIN]
inhibition at 1 µM [1]: < 20%

Cc1nc(-c2ccc(OCC(C)C)c(C#N)c2)sc1C(=O)O [FEBUXOSTAT]
inhibition at 1 µM [1]: 75%
IC50 [12]: 160 nM
Activity (Mus musculus [13]): Active
Activity (Mus musculus [14]): Active
